# From patent US20050153872A1, “Methods and compositions for the treatment of infection” (priority 2004, published 2005)
# How the values were obtained:
# [1] = system: Enterococcus (20); experiment: In vitro antibacterial activity (MIC), clinical isolates; assay type: cell-based; details: 20 Enterococcus clinical isolates
# Method in brief: (§1)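 Clinical isolates collected in Sichuan and Beijing in 2002, identified with the API system, were exposed to test compound to determine MIC50, MIC90 and MIC range. S. aureus ATCC25923, 29213 and BAA-42 served as control strains.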
# [2] = system: Staphylococcus aureus MSSA strain (88); experiment: as above; assay type: cell-based; details: 88 MSSA clinical isolates
# Method in brief: as §1
# [3] = system: Staphylococcus aureus MRSA strain (80); experiment: as above; assay type: cell-based; details: 80 MRSA clinical isolates
# Method in brief: as §1
# [4] = system: Staphylococcus epidermidis MSSE strain (21); experiment: as above; assay type: cell-based; details: 21 MSSE clinical isolates
# Method in brief: as §1
# [5] = system: Staphylococcus aureus MRSA BAA-42; experiment: microbe, parasite or virus in culture; assay type: cell-based; details: Staphylococcus aureus MRSA BAA-42
# [6] = system: Staphylococcus aureus ATCC 29213; experiment: MIC against challenge strain (Table 3); assay type: cell-based
# [7] = system: Enterococcus faecalis ATCC 700802; experiment: microbe, parasite or virus in culture; assay type: cell-based; details: Enterococcus faecalis, ATCC700802
# [8] = system: Staphylococcus aureus MRSA 02-18; experiment: microbe, parasite or virus in culture; assay type: cell-based; details: Staphylococcus aureus MRSA 02-18
# [9] = system: Escherichia coli 02-1-65; experiment: MIC against challenge strain (Table 3); assay type: cell-based
# [10] = system: Escherichia coli 02-1-65; experiment: In vivo protection of infected mice; set-up: species or system Kungming mice; details: i.p. infection 3.3 × 10^5 cfu/ml
# Description: (§2) The following experiments were performed by Pharmacology Lab, National Sichuan antibiotic industril institute, Chengdu, Sichuan.
# (§3) The agents described above were diluted with sterilized water to final concentrations of 10 mg/L, 5 mg/Land 2.5 mg/L. […]
# (§4) 170 mice (Kungming mice: 18˜22 g, 85 males and 85 females) were randomly divided into four groups and injected with a fatal dosage of staphylococci, enterococcus and E. coli intraperitoneally. […] Mice were inspected every 24 hours for 7-14 days. Dead mice were counted as positive results. The results are depicted in Table 3 and FIGS. 4 and 5A-B.
# [11] = system: Staphylococcus aureus ATCC 29213; experiment: In vivo protection of infected mice; set-up: species or system Kungming mice; details: i.p. infection 3.6 × 10^5 cfu/ml
# Description: as §2, §3, §4
# [12] = system: S. pneumoniae ATCC 700671 (Penicillin-resistant SP); details: 5 ug/ml
# [13] = system: vancomycin-sensitive Enterococcus ATCC29212; details: 3 ug/ml; ATCC 29212 cells
# [14] = system: Staphylococcus aureus MRSA BAA-42; experiment: In vivo protection of infected mice; set-up: species or system Kungming mice; details: mice, i.p. infection 5.5 × 10^5 cfu/ml
# Description: as §2
# (§5) The agents described above were diluted with sterilized water to final concentrations of 10 mg/L, 5 mg/Land 2.5 mg/L.
# (§6) Staphylococcus aureus ATCC BAA-42(MRSA) and enterococcus faecalis ATCC 700802 were used as control strains.
# as §4
# [15] = system: Staphylococcus aureus MRSA 02-18; experiment: In vivo protection of infected mice; set-up: species or system Kungming mice; details: mice, i.p. infection 1.7 × 10^5 cfu/ml
# Description: as §2, §5, §6, §4
# [16] = system: Enterococcus faecalis ATCC 700802; experiment: In vivo protection of infected mice; set-up: species or system Kungming mice; details: mice, i.p. infection 8.0 × 10^6 cfu/ml
# Description: as §2, §5, §6, §4
# [17] = system: ATCC 700671 PRSP (S. pneumoniae); experiment: In vivo protection effects of Ph-SP; set-up: species or system mice; details: for Death distribution in hours 24 h / Death distribution in hours 48 h / Death distribution in hours 72 h / Death distribution in hours 96 h / Death distribution in hours 120 h / Death distribution in hours 144 h / Death distribution in hours 168 h / Number of Death: 5 animals
# Description: To assess the in vivo effect of Ph-SP, mice were injected with ATCC 700671 PRSP intraperitoneally, followed by intravenous injections of PH-SP or controls.
# One hour after administration of the fatal dose of ATCC 700671 PRSP (10^5 CFU/ml), each mouse was injected through the tail vein with test agents at three dosages as described in Table 4.
# [18] = system: ATCC 700802 VRE cells; experiment: Ph-EF protection of ATCC 700802 infected mice; assay type: in vivo; details: 5 animals
# Description: To assess in vivo effects of Ph-EF, mice were injected with a fatal dosage of ATCC 700802 VRE cells intraperitoneally. […] Mice were inspected every 24 hours for 7-14 days. Dead mice would be counted as positive results.
# [19] = system: S. pneumoniae BQIOC 31201 (non-resistant)
# [20] = system: MRSA strain ATCC BAA-42; experiment: Electron micrographs of bactericidal effects; assay type: cell-based, S. aureus; details: Ph-SA 50 μg/ml 0.5 hrs; wild type colicin Ia 50 μg/ml 2 hrs; AgrDI 10 μg/ml 2 hrs
# Text: Electron Micrographs of Bactericidal Effects of Ph-SA1 Against ATCC BAA-42 MRSA Strain Cells (1% Phosphotungstic Acid. 25,000×)
# [21] = 1st Time, i.v. treatment after one hour
# [22] = 2nd Time (value in parentheses), i.v. treatment
molecule,measurement,setting,value
sodium penicillin,MIC50,[1],32 µg/mL
same,MIC90,[1],64 µg/mL
same,MIC50,[2],8 µg/mL
same,MIC90,[2],64 µg/mL
same,MIC Scope,[3],1˜128 mg/l
same,MIC50,[4],4 µg/mL
same,MIC90,[4],32 µg/mL
same,MIC Scope,[4],0.125˜128 mg/l
same,MIC,[5],8 µg/mL
same,MIC,[6],16 µg/mL
same,MIC,[7],2 µg/mL
same,MIC,[8],>16 µg/mL
same,MIC,[9],>128 µg/mL
same,ED50,[10]; [21],>30.77 mg/kg
same,ED50,[10]; [22],(>30.77) mg/kg
same,ED50,[11]; [21],10.75 mg/kg
same,ED50,[11]; [22],(9.84) mg/kg
same,inhibition of cell growth,[12],did not have a growth inhibitory effect
same,inhibition of cell growth,[13],inhibited cell growth
same,ED50,[14]; [21],>10 mg/kg
same,ED50,[14]; [22],(14.71) mg/kg
same,ED50,[15]; [21],7.28 mg/kg
same,ED50,[15]; [22],(11.33) mg/kg
same,ED50,[16]; [21],3.16 mg/kg
same,ED50,[16]; [22],(3.08) mg/kg
same,Death distribution in hours 24 h,[17]; 5 mg/kg tail vein,3
same,Death distribution in hours 48 h,[17]; 5 mg/kg tail vein,0
same,Death distribution in hours 72 h,[17]; 5 mg/kg tail vein,0
same,Death distribution in hours 96 h,[17]; 5 mg/kg tail vein,0
same,Death distribution in hours 120 h,[17]; 5 mg/kg tail vein,0
same,Death distribution in hours 144 h,[17]; 5 mg/kg tail vein,0
same,Death distribution in hours 168 h,[17]; 5 mg/kg tail vein,0
same,Number of Death,[17]; 5 mg/kg tail vein,3
same,Death distribution in hours 24 h,[17]; 10 mg/kg tail vein,3
same,Death distribution in hours 48 h,[17]; 10 mg/kg tail vein,0
same,Death distribution in hours 72 h,[17]; 10 mg/kg tail vein,0
same,Death distribution in hours 96 h,[17]; 10 mg/kg tail vein,0
same,Death distribution in hours 120 h,[17]; 10 mg/kg tail vein,0
same,Death distribution in hours 144 h,[17]; 10 mg/kg tail vein,0
same,Death distribution in hours 168 h,[17]; 10 mg/kg tail vein,0
same,Number of Death,[17]; 10 mg/kg tail vein,3
same,Death distribution in hours 24 h,[18]; 5 mg/kg intravenously,0
same,Death distribution in hours 48 h,[18]; 5 mg/kg intravenously,1
same,Death distribution in hours 72 h,[18]; 5 mg/kg intravenously,1
same,Death distribution in hours 96 h,[18]; 5 mg/kg intravenously,1
same,Death distribution in hours 120 h,[18]; 5 mg/kg intravenously,0
same,Death distribution in hours 144 h,[18]; 5 mg/kg intravenously,0
same,Death distribution in hours 168 h,[18]; 5 mg/kg intravenously,0
same,Number of Death,[18]; 5 mg/kg intravenously,3
same,Death distribution in hours 24 h,[18]; 10 mg/kg intravenously,0
same,Death distribution in hours 48 h,[18]; 10 mg/kg intravenously,0
same,Death distribution in hours 72 h,[18]; 10 mg/kg intravenously,0
same,Death distribution in hours 96 h,[18]; 10 mg/kg intravenously,0
same,Death distribution in hours 120 h,[18]; 10 mg/kg intravenously,0
same,Death distribution in hours 144 h,[18]; 10 mg/kg intravenously,0
same,Death distribution in hours 168 h,[18]; 10 mg/kg intravenously,0
same,Number of Death,[18]; 10 mg/kg intravenously,0
"Ph-SP: Colicin Ia linked to ComC pheromone of S. pneumoniae (protein, colicin Ia attached to streptococcus pneumoniae polypeptide pheromone) SDPVARGITNPGAESLGYDSDGHEIMAVASPIYVASNPPRVASPVFHGTPPAWSSFGNKTIWGGNEWVASPDSPTRSDIEKRDKEITAYKNTLSAQQKENENKRTEAGKRLSAAIAAREKDENTLKTLRAGNADAADITRQEFRLLQAELREYGFRTEIAGYDALRLHTESRMLFADADSLRISPREARSLIEQAEKRQKDAQNADKKAADMLAEYERRKGILDTRLSELEKNGGAALAVLDAQQARLLGQQTRNDRAISEARNKLSSVTESLNTARNALTRAEQQLTQQKNTPDGKTIVSPEKFPGRSSTNHSIVVSGDPRFAGTIKITTSAVIDNRANLNYLLSHSGLDYKRNILNDRNPVVTEDVEGDKKIYNAEVALAEWDKLRQRLLDARNKITSAESAVASNSARNNLSARTNEQKHANDALNALLKEKENIRNQLSGINQKIAEEKRKQDELKATKDAINFTTEFLKSVSEKYGAKAEQLAREMAGQAKGKKIRNVEEALKTYEKYRADINKKINAKDRAAIAAALESVKLSDISSNLNRFSRGLGYAGKFTSLADWITEFGKAVARGTENWRPLFVKTETIIAGNAATALVALALVFSILTGSALGIIGYGLLMAVTGALIDESLVEKANKFWGIEMRLSKFFRDFILQRKK",inhibition of cell growth,[12],more than 90%
same,bactericidal effect relative to penicillin on a molar basis,"[19]; Ph-SP 70,000 daltons vs penicillin 350 daltons",two hundred fold greater
same,Death distribution in hours 24 h,[17]; 5 mg/kg tail vein,0
same,Death distribution in hours 48 h,[17]; 5 mg/kg tail vein,1
same,Death distribution in hours 72 h,[17]; 5 mg/kg tail vein,0
same,Death distribution in hours 96 h,[17]; 5 mg/kg tail vein,0
same,Death distribution in hours 120 h,[17]; 5 mg/kg tail vein,0
same,Death distribution in hours 144 h,[17]; 5 mg/kg tail vein,0
same,Death distribution in hours 168 h,[17]; 5 mg/kg tail vein,0
same,Number of Death,[17]; 5 mg/kg tail vein,1
same,Death distribution in hours 24 h,[17]; 10 mg/kg tail vein,0
same,Death distribution in hours 48 h,[17]; 10 mg/kg tail vein,0
same,Death distribution in hours 72 h,[17]; 10 mg/kg tail vein,0
same,Death distribution in hours 96 h,[17]; 10 mg/kg tail vein,0
same,Death distribution in hours 120 h,[17]; 10 mg/kg tail vein,0
same,Death distribution in hours 144 h,[17]; 10 mg/kg tail vein,0
same,Death distribution in hours 168 h,[17]; 10 mg/kg tail vein,0
same,Number of Death,[17]; 10 mg/kg tail vein,0
same,protection against infection in mice,"[17]; ATCC 700671 PRSP i.p., agent i.v.",prevents streptococcus pneumoniae infection in mice
"wild type colicin Ia: wild type colicin Ia, channel forming polypeptide without targeting agent (protein, E. coli, wild type colicin Ia, channel forming polypeptide without targeting agent) MSDPVARGITNPGAESLGYDSDGHEIMAVASPIYVASNPPRVASPVFHGTPPAWSSFGNKTIWGGNEWVASPDSPTRSDIEKRDKEITAYKNTLSAQQKENENKRTEAGKRLSAAIAAREKDENTLKTLRAGNADAADITRQEFRLLQAELREYGFRTEIAGYDALRLHTESRMLFADADSLRISPREARSLIEQAEKRQKDAQNADKKAADMLAEYERRKGILDTRLSELEKNGGAALAVLDAQQARLLGQQTRNDRAISEARNKLSSVTESLNTARNALTRAEQQLTQQKNTPDGKTIVSPEKFPGRSSTNHSIVVSGDPRFAGTIKITTSAVIDNRANLNYLLSHSGLDYKRNILNDRNPVVTEDVEGDKKIYNAEVALAEWDKLRQRLLDARNKITSAESAVASNSARNNLSARTNEQKHANDALNALLKEKENIRNQLSGINQKIAEEKRKQDELKATKDAINFTTEFLKSVSEKYGAKAEQLAREMAGQAKGKKIRNVEEALKTYEKYRADINKKINAKDRAAIAAALESVKLSDISSNLNRFSRGLGYAGKFTSLADWITEFGKAVARGTENWRPLFVKTETIIAGNAATALVALALVFSILTGSALGIIGYGLLMAVTGALIDESLVEKANKFWGI",inhibition of cell growth,[13],failed to inhibit growth
same,inhibition of cell growth,"[19]; 5 ug/ml, S. pneumoniae BQIOC 31201",did not inhibit growth
same,bactericidal effect / effect on cell growth (electron micrographs),[20],no effect on cell growth
